Data set [1] concerns the target T1, QR1 (NQO1) (Homo sapiens, UniProt P15559).
T1 construct: purchased Sigma-Aldrich
Put plainly: Selectivity assay with QR1 in place of QR2, absorbance readout. The data set is classed as biochemical. The method, then:
(§1) The enzymatic activity of QR2 (10 nM) was measured using menadione (both Sigma-Aldrich) as substrate and dihydrobenzylnicotamide (BNAH; Tocris) as co-substrate (Boutin et al., 2005). The reaction was performed in 50 mM Tris HCl, 150 mM NaCl 0.01% Tween-20 pH=8.5 (Sigma-Aldrich) at room temperature. Briefly, 3 μL of menadione alone (200 μM) or a mixture of menadione and QR2 (200 μM of menadione and 10 nM of QR2) were dispensed in 1536-well black Nunc plates (Thermo-Fisher) using a Multidrop™ Combi Reagent Dispenser (Thermo-Fisher) and pre-incubated with compounds for 10 min. BNAH (200 μM) was then added (3 μL) to the reaction using a BioNex Solutions BNX 1536 plate washer and the plates were incubated for another 10 min. […] The initial HTS was done with approximately 200,000 compounds at a single concentration of 5 μM. The chemical libraries used were Selleck Chemicals Bioactives, the Drug-like set from Enamine, HitFinder collection from Maybridge, Spectrum Collection from Microsource, Lopac from Sigma-Aldrich and the diversity sets from ChemDiv and ChemBridge. Initial “hit” compounds were defined as causing >30% reduction of enzyme activity. Compounds suspected to be fluorescent were re-assayed in an absorbance assay at 350 nm using the same reaction but in a higher volume (100 μL), in a transparent plate (Greiner Bio-One). “Hit” compounds resulting from both the fluorescence and absorbance assay were tested in a dose-response, and median inhibition concentration (IC50) values were determined. In parallel, the same dose response was used in a selectivity assay where QR2 enzyme was replaced by QR1 (also known as—NQO1, 10 nM; Sigma-Aldrich).
(§2) In order to establish a varied, flexible and chemically amenable starting point from which to develop such inhibitors, the inventors ran a standardized QR2 assay (see methods) against ˜200,000 compounds, from a varied assortment of chemical libraries. […] Compounds that replicated the initial hit result were then assayed similarly, against NQO1, to evaluate compound specificity (FIG. 1B). From the HTS, a series of compounds containing a sulfonamide central linker, with an amine on one side and a heterocycle on the other, were identified and selected for SAR development (FIG. 1C).

The target in data set [2] is T1, QR1 (NQO1). In words: Selectivity assay with QR1 in place of QR2, fluorescence readout. The data set is classed as biochemical. The method, then:
as §1, §2

A short description of a further data set: in vitro. The following applies: human.
The target of data set [3] is T2, QR2 (Homo sapiens, UniProt P16083).
T2 sequence (P16083 1-231): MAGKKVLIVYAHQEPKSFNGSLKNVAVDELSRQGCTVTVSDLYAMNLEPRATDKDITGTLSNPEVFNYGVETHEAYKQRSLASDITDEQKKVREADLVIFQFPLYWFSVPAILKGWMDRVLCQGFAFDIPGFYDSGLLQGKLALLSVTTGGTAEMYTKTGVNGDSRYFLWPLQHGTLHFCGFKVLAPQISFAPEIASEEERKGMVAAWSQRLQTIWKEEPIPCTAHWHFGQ
In words: QR2 enzymatic activity assay (menadione/BNAH), absorbance readout at 350 nm. Format: biochemical. On the set-up: purchased Sigma-Aldrich. The method, then: (§3) The enzymatic activity of QR2 (10 nM) was measured using menadione (both Sigma-Aldrich) as substrate and dihydrobenzylnicotamide (BNAH; Tocris) as co-substrate (Boutin et al., 2005). The reaction was performed in 50 mM Tris HCl, 150 mM NaCl 0.01% Tween-20 pH=8.5 (Sigma-Aldrich) at room temperature. Briefly, 3 μL of menadione alone (200 μM) or a mixture of menadione and QR2 (200 μM of menadione and 10 nM of QR2) were dispensed in 1536-well black Nunc plates (Thermo-Fisher) using a Multidrop™ Combi Reagent Dispenser (Thermo-Fisher) and pre-incubated with compounds for 10 min. BNAH (200 μM) was then added (3 μL) to the reaction using a BioNex Solutions BNX 1536 plate washer and the plates were incubated for another 10 min. […] The initial HTS was done with approximately 200,000 compounds at a single concentration of 5 μM. The chemical libraries used were Selleck Chemicals Bioactives, the Drug-like set from Enamine, HitFinder collection from Maybridge, Spectrum Collection from Microsource, Lopac from Sigma-Aldrich and the diversity sets from ChemDiv and ChemBridge. Initial “hit” compounds were defined as causing >30% reduction of enzyme activity. […] “Hit” compounds resulting from both the fluorescence and absorbance assay were tested in a dose-response, and median inhibition concentration (IC50) values were determined. In parallel, the same dose response was used in a selectivity assay where QR2 enzyme was replaced by QR1 (also known as—NQO1, 10 nM; Sigma-Aldrich).
(§4) In order to establish a varied, flexible and chemically amenable starting point from which to develop such inhibitors, the inventors ran a standardized QR2 assay (see methods) against ˜200,000 compounds, from a varied assortment of chemical libraries.

Data set [4] concerns the target T2, QR2. Put plainly: QR2 enzymatic activity assay (menadione/BNAH), fluorescence readout. On the set-up: purchased Sigma-Aldrich. The data set is classed as biochemical. The method, then:
as §3, §4

We go through 18 molecules from patent publication US20240228481A1, “NOVEL SULFONAMIDE SERIES OF QR2 INHIBITORS TO TACKLE OXIDATIVE STRESS AND COGNITIVE DECLINE” (CARMEL HAIFA UNIVERSITY ECONOMIC CORPORATION LTD., priority 2021, published 2024).

Each structure is given as a SMILES string.

A word on the IC50: it is the point on the concentration scale where inhibition reaches its midpoint. Low readings indicate greater potency, high ones weaker potency.

T1 sequence (P15559 whole entry): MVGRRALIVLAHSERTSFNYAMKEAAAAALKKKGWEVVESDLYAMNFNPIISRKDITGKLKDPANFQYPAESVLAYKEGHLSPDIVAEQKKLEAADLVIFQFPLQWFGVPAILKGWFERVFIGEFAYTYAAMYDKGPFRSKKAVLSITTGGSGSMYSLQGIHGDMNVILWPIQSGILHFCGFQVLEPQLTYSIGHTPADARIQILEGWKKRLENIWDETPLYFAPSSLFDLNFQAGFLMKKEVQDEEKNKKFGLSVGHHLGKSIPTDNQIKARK
Description for in vitro: THLE-2 (CRL-2706™) were grown in the BEGM Bullet Kit (CC-3170) from Lonza. Besides the additives contained in the kit, the medium was further supplemented with 5 ng/mL EGF (Sigma), 70 ng/mL phosphoethanolamine (Sigma) and 10% FBS (Biological Industries). The plates for the THLE-2 needed to be pre-coated with a mixture of 0.01 mg/mL fibronectin, 0.05 mg/mL of PureCol™ EZ Gel Solution (Sigma) and 0.01 mg/mL of BSA dissolved in BEBM medium (Lonza). The coating medium was aspirated before seeding.
THLE-2 cells were exposed to the compounds in a 9-point, 2-fold dilution dose response series with a 100 μM as upper limit, for 72 h. Following the 72 h of exposure to the test compounds, cell viability was determined by measuring the concentration of cellular ATP (CellTiter Glo, Promega). The luminescence signal was measured on a Pherastar FS multi-mode plate reader (BMG Labtech). Each data point was tested in a triplicate.
First, toxicity was assessed in an ATP depletion assay, using THLE-2 cells following a 72 h exposure to a dose response of each of the tested compounds.

Turning to `Cc1cc(-c2ccc(C)c(S(=O)(=O)NCCCN3CCCC3=O)c2)on1` [PCM-0184891], the IC50 was greater than 9.99 µM on QR1 (NQO1) [1], greater than 9.9 µM on QR1 (NQO1) [2], 2.37 µM on QR2 [3] and 3.26 µM at QR2 [4]. In the data set “in vitro”, the IC50 at 72 h amounted to 219 µM.

As to `Cc1cc(-c2ccc(C)c(S(=O)(=O)NCc3cccnc3)c2)on1` [PCM-0184959], the IC50 against QR1 (NQO1) [1] was greater than 9.99 µM; on QR1 (NQO1) [2], greater than 9.9 µM; against QR2 [3], 2.16 µM; at QR2 [4] it was 2.72 µM. This molecule gave an IC50 at 72 h in the data set “in vitro” of 249 µM.

Turning to `Cc1cc(-c2ccc(C)c(S(=O)(=O)N3CCCC3)c2)on1` [PCM-0212386], the IC50 on QR1 (NQO1) [1] was greater than 9.99 µM; against QR1 (NQO1) [2], greater than 9.99 µM; against QR2 [3] it was 0.75 µM; against QR2 [4], 0.42 µM. The molecule also showed an IC50 at 72 h in “in vitro” of 65.1 µM.

For `Cc1cccn2cc(-c3cccc(S(=O)(=O)N4CCCCCC4)c3)nc12` [PCM-0124812], the 50% inhibitory concentration (IC50) on QR1 (NQO1) [1] came to 7.24 µM; against QR1 (NQO1) [2], 5.83 µM; on QR2 [3] it was 0.01 µM; against QR2 [4], 0.004 µM. Moreover, in “in vitro”, the midpoint of inhibition, the IC50 at 72 h, lay at 45.4 µM.

Consider `Cc1cc(-c2ccc(C)c(S(=O)(=O)N3CCN(C(=O)c4ccco4)CC3)c2)on1` [PCM-0212388], for which the IC50 was greater than 9.99 µM on QR1 (NQO1) [1], greater than 9.99 µM against QR1 (NQO1) [2], 1.25 µM on QR2 [3] and 1.19 µM against QR2 [4]. In “in vitro”, this molecule gave an IC50 at 72 h of 124 µM.

Regarding `Cc1cccn2cc(-c3cccc(S(=O)(=O)N4CCN(C(=O)c5ccco5)CC4)c3)nc12` [PCM-0213792], the IC50 at QR1 (NQO1) [1] was found to be 4.22 µM; against QR1 (NQO1) [2], 3.33 µM; at QR2 [3], 0.01 µM; on QR2 [4] it was 0.01 µM. Besides, the IC50 at 72 h in “in vitro” amounted to 64.1 µM.

For `Cc1cc(-c2ccc(C)c(S(=O)(=O)N(C)C)c2)on1` [PCM-0212389], the IC50 on QR1 (NQO1) [1] was greater than 9.99 µM; against QR1 (NQO1) [2], greater than 9.99 µM; on QR2 [3], 1.71 µM; against QR2 [4], 2.31 µM. Moreover, 215 µM corresponded to half-maximal inhibition in the data set “in vitro” (IC50 at 72 h).

Regarding `Cc1cc(-c2ccc(C)c(S(=O)(=O)N3CCCCCC3)c2)on1` [PCM-0212385], the IC50 against QR1 (NQO1) [1] was greater than 9.99 µM; against QR1 (NQO1) [2], greater than 9.99 µM; at QR2 [3], 1.24 µM; against QR2 [4], 1.92 µM. For the same molecule, in “in vitro”, the IC50 at 72 h turned out to be 23.8 µM.

Regarding `Cc1cc(-c2ccc(C)c(S(=O)(=O)N3CCC(C)CC3)c2)on1` [PCM-0212387], the IC50 against QR1 (NQO1) [1] was greater than 9.99 µM; against QR1 (NQO1) [2], greater than 9.99 µM; at QR2 [3] it was 1.83 µM; at QR2 [4], 2.89 µM. Besides, the IC50 at 72 h in “in vitro” stood at 50 µM.

In the case of `Cc1cccn2cc(-c3cccc(S(=O)(=O)N(C)C)c3)nc12` [PCM-0213804], the IC50 on QR1 (NQO1) [1] was greater than 9.99 µM; on QR1 (NQO1) [2] it was greater than 9.99 µM; on QR2 [3], 0.02 µM; against QR2 [4], 0.19 µM. In addition, in the data set “in vitro”, the IC50 at 72 h was greater than 100 µM.

With `Cc1cccn2cc(-c3cccc(S(=O)(=O)NCc4cccnc4)c3)nc12` [PCM-0213814], the IC50 at QR1 (NQO1) [1] was 7.18 µM; at QR1 (NQO1) [2] it was greater than 9.99 µM; against QR2 [3], 0.02 µM; at QR2 [4], 0.02 µM. In the data set “in vitro”, this molecule registered a 50% inhibitory concentration (IC50) at 72 h greater than 99 µM.

In the data set “in vitro”, `Cc1ccn2cc(-c3ccc(C)c(S(=O)(=O)N4CCC(C)CC4)c3)nc2c1` [PCM-0214339] gave an IC50 at 72 h of 59.4 µM. In addition, the IC50 was determined as 4.49 µM on QR2 [3] and 3.96 µM against QR2 [4].

Take `Cc1ccn2cc(-c3cccc(S(=O)(=O)N4CCCC4)c3)nc2c1` [PCM-0124535]: the IC50 against QR1 (NQO1) [1] is greater than 9.99 µM; against QR1 (NQO1) [2], greater than 9.99 µM; against QR2 [3] it was 0.16 µM; on QR2 [4] it was 0.59 µM. This molecule also had an IC50 at 72 h in “in vitro” of 88.9 µM.

With `Cc1ccc(-c2cn3cccc(C)c3n2)cc1S(=O)(=O)N1CCCCCC1` [PCM-0214338], the 50% inhibitory concentration (IC50) against QR1 (NQO1) [1] was greater than 9.99 µM; against QR1 (NQO1) [2], greater than 9.99 µM; against QR2 [3], 0.03 µM; on QR2 [4], 0.02 µM. Also, the IC50 at 72 h in “in vitro” was greater than 99 µM.

Consider `CC(=O)N1CCOc2ccc(S(=O)(=O)N3CCCc4ccccc43)cc21` [PCM-0119249], for which the IC50 against QR1 (NQO1) [1] was 3.48 µM; against QR1 (NQO1) [2] it was 4.7 µM; against QR2 [3], greater than 9.99 µM; against QR2 [4], greater than 9.9 µM.

On to `CCOC(=O)c1cc(-c2ccc(OC)c(S(=O)(=O)N3CCCc4ccccc43)c2)on1` [PCM-0120247], for which the IC50 against QR1 (NQO1) [1] is greater than 9.99 µM; on QR1 (NQO1) [2], greater than 9.9 µM; against QR2 [3], greater than 9.99 µM; against QR2 [4] it was greater than 9.9 µM.

Turning to `Cc1ccn2cc(-c3cccc(S(=O)(=O)NCCCN4CCCC4=O)c3)nc2c1` [PCM-0213817], the IC50 at QR1 (NQO1) [1] turned out to be 3.44 µM; on QR1 (NQO1) [2] it was 5.28 µM; against QR2 [3], 0.32 µM; on QR2 [4], 0.7 µM.

Regarding `O=S(=O)(Nc1cccc(-c2cn3ccsc3n2)c1)c1ccc2c(c1)OCCO2` [PCM-0190999], the IC50 was less than 0.75 µM against QR1 (NQO1) [1], less than 0.83 µM against QR1 (NQO1) [2], 4.03 µM against QR2 [3] and 5.62 µM against QR2 [4].
